{
  "source": "patent US4824937A",
  "about": "“Synthetic natriuretic peptides” (501 Advanced Peptide Development, Ltd., priority 1986, dated 1989)",
  "test_system": "rabbit thoracic aorta strips",
  "assay": "Vasorelaxant activity against noradrenaline-induced tension in aorta strips",
  "conditions": "for Relative Potency: potency of BG-3009 taken arbitrarily as 100; for Ratio (noradrenaline EC50 in the presence of compound divided by EC50 with noradrenaline alone): added 5 min before noradrenaline",
  "experimental": "The vasorelaxant activities of the SNP of this invention are determined in vitro using freshly prepared rabbit thoracic aorta strips, helically cut according to the method of Furchgott et al., 1953 J. Pharmacol. Exp. Therap. 108, 129. One end of each strip is attached to a holding rod, the other end is equipped with a silk thread which is kept under a tension of about 5 g, and the complete assembly is kept over night at 4° C. in oxygenated Krebs solution. On the day of the experiment each strip is set up in a 10 ml bath of oxygenated (5% CO2) Krebs solution at 37° C. and the thread is attached to an isometric force transducer (Grass Instruments Model FT.03) connected to a polygraph (Grass Instruments Model 5). A resting tension of 5 g is applied to each strip and is readjusted until a stable resting tension is attained (45-60 minutes). The strips are then challenged repeatedly with the same dose of noradrenaline to ensure that the induced increase in tension is uniform. The stock solution of noradrenaline bitartrate (Sigma Chemical Co.) is made up in 0.001N HCl, and dilutions are freshly prepared in deionized water containing 0.0001M ascorbic acid and are kept protected from light during the experiments. In each experiment two cumulative full dose-response determinations to noradrenaline alone are carried out consecutively on one strip (time control). On the other strips dose-response determinations are done with noradrenaline alone, and then repeated five minutes after having added the compound to be tested to concentrations of 2, 5, 50, and 500 ng/ml, respectively. The tension elicited by each concentration of noradrenaline is expressed as a percentage of the maximal response obtained with noradrenaline, and the concentration of noradrenaline producing a tension equal to 50% of the maximal response is calculated (EC50). The same calculations are also carried out with the results obtained in the presence of the various concentrations of the compound to be tested, and the EC50 thus obtained is divided by the EC50 obtained in the absence of said compound, to arrive at a ration which is clear indication of the potency of the respective compound.\nThe SNP of formula 1 in which R^1 is H-D-Tyr, R^2 is Ile, and R^3 is OH, identified by the code number 05-22-0318 is tested for its vasorelaxant activities and compared with a known ANP composed of 28 amino acid residues and identified by the code number BG-3009. The test method is described above in some detail. Two rabbits are sacrificed and the thoracic aorta prepared from each animal is helically cut so as to obtain five strips from each aorta. One strip from each aorta is used for time control and is exposed to the full range of concentrations of noradrenaline alone at the beginning and at the end of the experiment, and the concentrations of noradrenaline giving 50% of the maximal response are calculated (EC50). […] One strip from each of the remaining two pairs of strips from each aorta is then exposed to the full range of concentrations of noradrenaline alone as described above, and the responses are noted. The other strip from the same pair is first exposed to concentrations of 2, 5, 50, and 500 ng/ml of the compound to be tested, respectively, and five minutes after having added the above concentrations of the compound to be tested the strip is challenged with noradrenaline at increasing concentrations and the responses obtained are noted again. The EC50 obtained in the presence of the respective concentration of the compound to be tested is then divided by the EC50 obtained in the absence of said compound with noradrenaline alone, and the ratio of the two EC50's is calculated to give a clear measure of the vasorelaxant properties of said compound. Furthermore, when taking the potency of the reference compound having the code number BG-3009 arbitrarily as 100 the relative potencies of the above SNP (code No. 05-22-0318) at the respective levels of concentration are also calculated. […]",
  "note": "Ends that are not written are not given here.",
  "data": [
    {"substance": "BG-3009: known ANP composed of 28 amino acid residues, identical with the ANP described by Flynn et al. (SLRRSSCFGGRIDRIGAQSGLGCNSFRY; not fully specified; ends and bridges not checked; UniProt P01161 123-150, looked up)", "values": [
      {"measurement": "Relative Potency", "setting": "2 ng/ml", "value": 100},
      {"measurement": "Relative Potency", "setting": "5 ng/ml", "value": 100},
      {"measurement": "Relative Potency", "setting": "50 ng/ml", "value": 100},
      {"measurement": "Relative Potency", "setting": "500 ng/ml", "value": 100},
      {"measurement": "Ratio (noradrenaline EC50 in the presence of compound divided by EC50 with noradrenaline alone)", "setting": "compound concentration 2 ng/ml", "value": 2.9},
      {"measurement": "Ratio (noradrenaline EC50 in the presence of compound divided by EC50 with noradrenaline alone)", "setting": "compound concentration 5 ng/ml", "value": 3.8},
      {"measurement": "Ratio (noradrenaline EC50 in the presence of compound divided by EC50 with noradrenaline alone)", "setting": "compound concentration 50 ng/ml", "value": 25.8},
      {"measurement": "Ratio (noradrenaline EC50 in the presence of compound divided by EC50 with noradrenaline alone)", "setting": "compound concentration 500 ng/ml", "value": 26.1}
    ]}
  ]
}
